Measurements: ChEMBL document CHEMBL5465560, “Selectivity Literature for EUbOPEN Chemogenomic Library” (2024)

Tests used:
Focal adhesion kinase 1 = Focal adhesion kinase 1 (Homo sapiens, UniProt Q05397); experiment: Selectivity interaction (KinomeScan (DiscoverX)) EUB0000666a PTK2; conditions: at 10 µM
[1] = molecular target: T1, Myotonin-protein kinase (Homo sapiens) (UniProt Q09013); conditions: at 10 µM
T1 sequence (whole entry): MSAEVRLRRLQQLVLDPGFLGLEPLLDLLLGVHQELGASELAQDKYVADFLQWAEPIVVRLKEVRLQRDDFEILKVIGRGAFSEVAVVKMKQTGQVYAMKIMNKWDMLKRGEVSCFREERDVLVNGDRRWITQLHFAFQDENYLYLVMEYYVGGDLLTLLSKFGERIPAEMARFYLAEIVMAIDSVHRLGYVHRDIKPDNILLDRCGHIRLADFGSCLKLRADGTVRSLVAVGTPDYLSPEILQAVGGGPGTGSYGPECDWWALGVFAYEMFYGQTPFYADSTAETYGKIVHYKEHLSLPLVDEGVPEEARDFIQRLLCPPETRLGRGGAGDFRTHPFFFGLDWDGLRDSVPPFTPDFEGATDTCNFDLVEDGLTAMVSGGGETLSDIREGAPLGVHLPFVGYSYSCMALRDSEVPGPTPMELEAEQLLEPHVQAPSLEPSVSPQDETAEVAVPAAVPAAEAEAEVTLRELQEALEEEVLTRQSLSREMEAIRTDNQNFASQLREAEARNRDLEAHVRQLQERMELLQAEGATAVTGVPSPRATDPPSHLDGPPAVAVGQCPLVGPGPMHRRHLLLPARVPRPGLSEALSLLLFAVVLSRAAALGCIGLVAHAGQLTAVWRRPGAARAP

[2] = molecular target: T2, Tyrosine-protein kinase receptor TYRO3 (Homo sapiens) (UniProt Q06418); experiment: Selectivity interaction (Kinase screening (Nanosyn)) EUB0000604a TYRO3
T2 sequence (whole entry): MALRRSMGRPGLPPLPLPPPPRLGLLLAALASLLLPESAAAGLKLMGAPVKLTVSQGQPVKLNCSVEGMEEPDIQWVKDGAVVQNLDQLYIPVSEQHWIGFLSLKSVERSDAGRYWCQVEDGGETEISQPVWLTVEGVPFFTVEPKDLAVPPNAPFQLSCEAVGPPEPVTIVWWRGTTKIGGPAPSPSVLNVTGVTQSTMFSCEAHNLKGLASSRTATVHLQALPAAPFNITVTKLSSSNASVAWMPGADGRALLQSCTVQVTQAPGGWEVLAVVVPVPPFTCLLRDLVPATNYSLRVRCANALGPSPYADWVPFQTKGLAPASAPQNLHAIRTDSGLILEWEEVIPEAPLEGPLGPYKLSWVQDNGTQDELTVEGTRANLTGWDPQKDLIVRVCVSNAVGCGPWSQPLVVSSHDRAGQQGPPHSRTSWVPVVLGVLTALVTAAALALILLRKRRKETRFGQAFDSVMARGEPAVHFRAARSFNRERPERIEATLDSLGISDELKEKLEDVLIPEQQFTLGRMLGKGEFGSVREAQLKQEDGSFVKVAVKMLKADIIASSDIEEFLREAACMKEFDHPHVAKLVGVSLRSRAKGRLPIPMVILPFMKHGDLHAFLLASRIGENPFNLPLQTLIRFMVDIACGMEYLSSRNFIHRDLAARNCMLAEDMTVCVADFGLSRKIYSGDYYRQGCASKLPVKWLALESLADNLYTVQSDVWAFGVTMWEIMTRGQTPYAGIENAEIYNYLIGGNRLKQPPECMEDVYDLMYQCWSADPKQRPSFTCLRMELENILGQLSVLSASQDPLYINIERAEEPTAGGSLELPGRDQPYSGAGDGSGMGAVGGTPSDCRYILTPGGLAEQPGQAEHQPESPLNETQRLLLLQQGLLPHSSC

[3] = Selectivity interaction (Ambit KINOMEscan and KiNATiv profiling in Jurkat cells) EUB0000090b CDPK1; conditions: Selectivity number of off-targets 9; Selectivity number of targets 456; Source Knowledge https://www.nature.com/articles/nchembio.2166; at 1 µM
[4] = molecular target: Mitogen-activated protein kinase 10 (Homo sapiens, UniProt P53779); experiment: Selectivity interaction (Upstate Kinase Profiler service (Millipore)) EUB0000056c MAPK10; conditions: at 1 µM
[5] = molecular target: T3, Dual specificity mitogen-activated protein kinase kinase 4 (Homo sapiens) (UniProt P45985); experiment: Selectivity interaction (LanthaScreen Eu Kinase Binding Assay) EUB0001632a MAP2K4; conditions: at 10 µM
T3 sequence (whole entry): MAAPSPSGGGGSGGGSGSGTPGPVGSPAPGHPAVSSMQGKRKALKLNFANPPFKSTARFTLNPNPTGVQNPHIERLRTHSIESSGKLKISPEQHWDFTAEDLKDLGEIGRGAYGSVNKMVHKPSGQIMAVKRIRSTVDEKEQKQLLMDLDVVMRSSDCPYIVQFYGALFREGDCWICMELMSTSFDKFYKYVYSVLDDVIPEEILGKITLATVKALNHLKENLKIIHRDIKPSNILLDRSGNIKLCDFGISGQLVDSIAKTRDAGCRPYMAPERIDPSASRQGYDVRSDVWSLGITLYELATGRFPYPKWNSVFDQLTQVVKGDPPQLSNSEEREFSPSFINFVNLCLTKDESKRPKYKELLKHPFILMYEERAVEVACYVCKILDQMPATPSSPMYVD

[6] = molecular target: Tyrosine-protein kinase BTK (Homo sapiens, UniProt Q06187); experiment: Selectivity interaction (Kinase panel (Z-LYTE Assay)) EUB0001632a BTK; conditions: at 10 µM
Chain of Tyrosine-protein kinase BTK (Q06187 whole entry): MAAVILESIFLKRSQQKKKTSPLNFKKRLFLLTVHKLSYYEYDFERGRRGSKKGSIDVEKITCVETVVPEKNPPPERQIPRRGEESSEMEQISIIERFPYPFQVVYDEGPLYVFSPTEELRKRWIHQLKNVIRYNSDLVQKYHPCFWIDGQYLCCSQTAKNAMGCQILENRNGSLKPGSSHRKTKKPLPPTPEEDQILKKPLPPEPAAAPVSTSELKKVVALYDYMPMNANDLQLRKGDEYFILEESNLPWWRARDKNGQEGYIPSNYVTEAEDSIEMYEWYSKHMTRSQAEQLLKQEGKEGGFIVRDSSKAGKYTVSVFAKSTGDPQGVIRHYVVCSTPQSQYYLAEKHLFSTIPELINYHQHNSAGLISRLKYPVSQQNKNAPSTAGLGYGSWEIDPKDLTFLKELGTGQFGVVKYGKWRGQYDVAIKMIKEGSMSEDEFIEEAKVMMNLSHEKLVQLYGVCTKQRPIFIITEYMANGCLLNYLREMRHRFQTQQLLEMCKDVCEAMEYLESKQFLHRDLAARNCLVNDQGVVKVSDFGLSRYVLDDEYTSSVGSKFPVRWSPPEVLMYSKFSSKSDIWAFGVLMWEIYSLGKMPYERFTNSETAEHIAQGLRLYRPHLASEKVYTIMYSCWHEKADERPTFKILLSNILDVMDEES

Chain of Focal adhesion kinase 1 (Q05397 2-1052 limits assumed): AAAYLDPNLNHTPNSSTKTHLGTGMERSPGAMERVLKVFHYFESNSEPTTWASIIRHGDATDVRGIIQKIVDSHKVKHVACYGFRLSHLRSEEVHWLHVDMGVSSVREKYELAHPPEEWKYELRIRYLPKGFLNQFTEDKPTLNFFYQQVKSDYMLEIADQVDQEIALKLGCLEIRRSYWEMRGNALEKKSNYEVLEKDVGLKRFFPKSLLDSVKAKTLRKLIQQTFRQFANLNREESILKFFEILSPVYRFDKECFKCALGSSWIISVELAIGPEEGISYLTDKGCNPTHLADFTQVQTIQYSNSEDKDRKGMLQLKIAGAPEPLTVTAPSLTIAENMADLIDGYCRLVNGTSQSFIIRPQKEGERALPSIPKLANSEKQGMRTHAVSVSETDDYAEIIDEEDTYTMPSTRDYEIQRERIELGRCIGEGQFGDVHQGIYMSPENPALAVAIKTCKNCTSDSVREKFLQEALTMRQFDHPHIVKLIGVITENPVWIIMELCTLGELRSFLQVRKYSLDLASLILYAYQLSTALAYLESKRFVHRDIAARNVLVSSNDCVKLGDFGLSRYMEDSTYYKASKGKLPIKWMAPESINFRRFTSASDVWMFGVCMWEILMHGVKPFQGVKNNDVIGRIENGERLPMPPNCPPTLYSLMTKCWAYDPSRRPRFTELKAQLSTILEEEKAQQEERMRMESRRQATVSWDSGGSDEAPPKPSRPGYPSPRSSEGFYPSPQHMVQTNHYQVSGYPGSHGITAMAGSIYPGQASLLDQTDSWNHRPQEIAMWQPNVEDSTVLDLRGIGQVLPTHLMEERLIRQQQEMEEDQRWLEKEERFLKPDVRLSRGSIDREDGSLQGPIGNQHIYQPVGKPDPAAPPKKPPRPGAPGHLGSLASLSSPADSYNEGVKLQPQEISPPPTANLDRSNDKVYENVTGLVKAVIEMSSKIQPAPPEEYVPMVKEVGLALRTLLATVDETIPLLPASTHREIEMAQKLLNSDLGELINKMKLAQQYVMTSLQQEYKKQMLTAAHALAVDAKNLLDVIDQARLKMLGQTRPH
Chain of Mitogen-activated protein kinase 10 (P53779 whole entry): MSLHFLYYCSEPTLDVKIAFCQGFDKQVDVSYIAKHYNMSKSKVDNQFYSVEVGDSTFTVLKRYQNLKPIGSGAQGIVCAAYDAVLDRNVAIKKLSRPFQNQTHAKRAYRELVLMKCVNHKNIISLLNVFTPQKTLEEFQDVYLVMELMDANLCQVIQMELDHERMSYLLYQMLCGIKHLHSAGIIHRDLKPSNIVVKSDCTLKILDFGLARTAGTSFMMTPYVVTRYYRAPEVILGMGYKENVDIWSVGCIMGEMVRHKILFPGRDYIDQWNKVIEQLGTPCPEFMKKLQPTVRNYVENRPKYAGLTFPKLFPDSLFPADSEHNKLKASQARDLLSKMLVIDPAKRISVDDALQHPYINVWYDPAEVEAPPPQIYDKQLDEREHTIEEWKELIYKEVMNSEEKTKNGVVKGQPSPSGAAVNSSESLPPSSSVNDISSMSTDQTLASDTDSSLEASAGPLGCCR

With `O=C(NOC[C@H](O)CO)c1ccc(F)c(F)c1Nc1ccc(I)cc1F` the % of control (Focal adhesion kinase 1) was 85%.
Work on `CCN(CC)CCCCNc1ncc2cc(-c3cc(OC)cc(OC)c3)c(NC(=O)NC(C)(C)C)nc2n1` yielded a % of control [1] of 100%.
`Cc1cnc(Nc2ccc(F)cc2Cl)nc1-c1c[nH]c(C(=O)N[C@H](CO)c2cccc(Cl)c2)c1` showed a % of inhibition [2] of 0%.
For `CN(C)C/C=C/C(=O)Nc1ccc(C(=O)N2CCCC(Nc3ncc(Cl)c(-c4c[nH]c5ccccc45)n3)C2)cc1` (configuration not stated), the “% of control” value [3] was 7%.
For `Cc1ccc(-c2ccc3c(ccc4sc5c(c43)NC[C@@H](C)NC5=O)n2)cn1`, the % of inhibition [4] was -5%.
`Cn1cc(-n2cnc3c(NCc4nc5cc(Cl)c(Cl)cc5[nH]4)nc(N4CCOCC4)nc32)cn1` showed a % of inhibition [5] of -62.3% and a % of control [6] of -7.51%.
